From ChEMBL document CHEMBL3271977, “Stereospecific interaction of the quaternized opiate, N-methyllevorphanol, with opiate receptors” (J Med Chem, 1976) come the findings set out here.

The subject of experiment [1] is Ileum. The experiment in a line: Inhibition of electrically-induced contraction of guinea pig ileum longitudinal muscle with myentric plexus up to 10^-5 M. Format: functional, tissue-based. To be noted: Cavia porcellus.
The test system of experiment [2] is Ileum. Briefly: Inhibition of electrically-induced contraction of guinea pig ileum longitudinal muscle with myentric plexus at 4 X 10^-5 M. The settings on record: Cavia porcellus. The class given is functional, tissue-based.
For experiment [3], the system named is Ileum. The experiment in a line: Inhibition of electrically-induced contraction of guinea pig ileum longitudinal muscle with myentric plexus in presence of naloxone. To be noted: Cavia porcellus. Format: functional, tissue-based.
In experiment [4] the test system is Ileum. Briefly: Stimulation of guinea pig ileum longitudinal muscle contraction relative to levorphanol. Format: functional, Cavia porcellus.
The nature of experiment [5]: Displacement of [3H]etorphine from opioid receptor in guinea pig brain homogenate by scintillation counting analysis. The class given is tissue-based, Cavia porcellus.
The subject of experiment [6] is Ileum. The experiment in a line: Inhibition of electrically-induced contraction of guinea pig ileum longitudinal muscle with myentric plexus. Format: functional, tissue-based. To be noted: Cavia porcellus.
In experiment [7] the test system is Ileum. Briefly: Reduction in response of guinea pig ileum longitudinal muscle to exogenous acetylcholine. The class given is functional, tissue-based. To be noted: Cavia porcellus.
Experiment [8] deals with Ileum. Briefly: Inhibition of electrically-induced contraction of guinea pig ileum longitudinal muscle relative to levorphanol. Format: functional, Cavia porcellus.

The structures appear in SMILES notation. Activity calls are given as the source filed them. The rule behind the calls is not given here.

Usually IC50 stands for the concentration that inhibits the measured activity by half. A lower IC50 goes with greater potency.

Turning to `C[N+]1(C)CC[C@@]23CCCC[C@@H]2[C@@H]1Cc1ccc(O)cc13`, the inhibition result with Ileum [1] is “inactive”. In addition, the inhibition entry with Ileum [2] is “Active”.
As for `C[N+]1(C)CC[C@]23CCCC[C@H]2[C@H]1Cc1ccc(O)cc13.[I-]`, the inhibition result in the experiment with Ileum [3] and in the experiment with Ileum [7] was “inactive” in each case. Besides, the “fold change (FC)” value is listed as 0.068 with Ileum [4] and 0.032 in the experiment on Ileum [8]. Besides, the IC50 in experiment [5] was 520 nM; in the experiment with Ileum [6], 610 nM. Also, in the experiment with Ileum [6], the inhibition result was “Dose-dependent effect”.
The compound `CN1CC[C@]23CCCC[C@H]2[C@H]1Cc1ccc(O)cc13` [LEVORPHANOL] returned a concentration for half-maximal inhibition (IC50) in experiment [5] of 8 nM.
